Structures can show the parent of a compound that is named as a salt. Where two headings read alike, the source gives them in different places.
Assays:
[1] = test system: Sprague–Dawley rats; assay: Acoustic startle: startle magnitude; format: in vivo, rat
[2] = test system: Sprague–Dawley rats; assay: Behavioral Pattern Monitor locomotor activity; format: in vivo, rat; settings: 5-MeO-DMT 1 mg/kg SC, clorgyline 0.3 mg/kg pretreatment; fifth 10-min time block, p<0.05
[3] = test system: Sprague–Dawley rats; assay: Prepulse inhibition; format: in vivo, rat
[4] = test system: 5-HT2A; settings: cited from earlier work
[5] = 5-MeO-DMT and bufotenine levels in whole brain by LC-ESI-SRM-MS/MS; format: in vivo, rat; settings: for Cmax: rat, whole brain, sc, 1 mg/kg, Cmax of 5-MeO-DMT in whole brain
[6] = test system: 5-HT uptake; settings: ref Berge et al. 1983; Chang et al. 1993; Nagai et al. 2007; cited from earlier work
[7] = 10 mg/kg IP; ref Sitaram et al. 1987; cited from earlier work
[8] = 5-MeO-DMT and bufotenine levels in plasma by LC-ESI-SRM-MS/MS; format: in vivo, rat; settings: for AUC / Cmax: rat, plasma, sc, 1 mg/kg, 1 mg/kg SC; for AUC: plasma AUC20→70 min for 5-MeO-DMT, trapezoidal rule; for Cmax: plasma Cmax of 5-MeO-DMT
[9] = test system: 5-HT2A; settings: rats; ref Bedard and Pycock 1977; Matthews and Smith 1980; cited from earlier work
[10] = after SC administration of 1 mg/kg
[11] = clorgyline 0.3 mg/kg pretreatment

**Q.** Which “Startle magnitude (mean±SEM)” value ([1]; clorgyline 0.3 mg/kg pretreatment, 5-MeO-DMT 1.0 mg/kg SC, 45 min, experiment 2, n=12) does the source give for `COc1ccc2[nH]cc(CCN(C)C)c2c1` [5-MeO-DMT, 5-Methoxy-N,N-dimethyltryptamine] here?
**A.** 544.45±62.88

**Q.** What about the “Startle magnitude (mean±SEM)” value ([1]; vehicle pretreatment, 5-MeO-DMT 0.1 mg/kg SC, tested 45 min post-injection, experiment 1, n=10) of the same molecule?
**A.** 180.58±37.92

**Q.** What about the “Startle magnitude (mean±SEM)” value ([1]; vehicle pretreatment, 5-MeO-DMT 1.0 mg/kg SC, 45 min, experiment 1, n=10) of the same molecule?
**A.** 274.12±56.96

**Q.** And the “Crossings (locomotor activity) versus vehicle pretreatment” value [2]?
**A.** significantly more crossings

**Q.** And the “Effect on PPI” value ([3]; 5-MeO-DMT 1.0 mg/kg SC in animals pretreated with clorgyline 0.3 mg/kg, 45 min, all three prepulse intensities, p<0.01)?
**A.** significantly reduced PPI

**Q.** And the “Effect on PPI” value ([3]; 5-MeO-DMT 1 mg/kg SC in animals pretreated with pargyline 10 mg/kg, 45 min, all three prepulse intensities, p<0.01)?
**A.** significantly reduced PPI

**Q.** What about the “Effect on PPI” value ([3]; 5-MeO-DMT 1.0 mg/kg SC, saline-pretreated animals, 45 min, experiment 2) of the same molecule?
**A.** did not alter PPI

**Q.** And the “Effect on PPI” value ([3]; 5-MeO-DMT 0.1 or 1.0 mg/kg SC, saline-pretreated animals, tested 45 min post-injection, experiment 1)?
**A.** did not alter PPI

**Q.** And the “concentration of 5-MeO-DMT required to activate 5-HT2A” value ([4]; ref Blair et al. 2000, Parrish and Nichols 2006)?
**A.** low micromolar range

**Q.** And the “concentration of 5-MeO-DMT required to activate 5-HT2A” value ([4]; ref Newton et al. 1996, Rabin et al. 2002, Kurrasch-Orbaugh et al. 2003, Strachan et al. 2010)?
**A.** several hundred nanomolar

**Q.** And the “peak level of 5-MeO-DMT in the brain” value ([5]; 1 mg/kg SC, no MAO inhibitor)?
**A.** 144.3 nM

**Q.** What about the “time at which level of 5-MeO-DMT in brain peaked” value [5, 10] of the same molecule?
**A.** ≤ 20 min

**Q.** And the Cmax ([5]; 1 mg/kg SC, clorgyline 0.3 mg/kg pretreatment)?
**A.** 634 ± 146 ng/g

**Q.** And the Cmax ([5]; 1 mg/kg SC, vehicle pretreatment)?
**A.** 30.3 ± 11.2 ng/g

**Q.** And the “concentrations inhibiting 5-HT uptake” value [6]?
**A.** low micromolar concentrations

**Q.** What about the “increase of 5-MeO-DMT blood levels by iproniazid” value [7] of the same molecule?
**A.** 40 fold

**Q.** And the “increase of 5-MeO-DMT brain levels by iproniazid” value [7]?
**A.** ~100 fold

**Q.** And the “time at which level of 5-MeO-DMT in plasma peaked” value [8, 10]?
**A.** ≤ 20 min

**Q.** What about the AUC [8, 11] of the same molecule?
**A.** 31.4 ± 2.3 ng·h/mL

**Q.** What about the AUC ([8]; vehicle pretreatment) of the same molecule?
**A.** 12.2 ± 1.7 ng·h/mL

**Q.** What about the Cmax [8, 11] of the same molecule?
**A.** 78.1 ± 9.5 ng/mL

**Q.** And the Cmax ([8]; vehicle pretreatment)?
**A.** 52.7 ± 11.8 ng/mL

**Q.** What about the “doses eliciting the head twitch response (HTR)” value [9] of the same molecule?
**A.** 0.2 to 1 mg/kg

**Q.** Which “Startle magnitude (mean±SEM)” value ([1]; clorgyline 0.3 mg/kg SC pretreatment, vehicle treatment, experiment 2, n=12) does the source give for `C#CCN(C)CCCOc1ccc(Cl)cc1Cl.Cl` [Clorgyline, N-methyl-N-propargyl-3-(2,4-dichlorophenoxy)-propylamine HCl] here?
**A.** 422.31±78.47

**Q.** Which results are given for `COc1ccccc1N1CCN(CCN(C(=O)C2CCCCC2)c2ccccn2)CC1.O=C(O)/C=C\C(=O)O` [WAY-100635, N-[2-[4-(2-methoxyphenyl)-1-piperazinyl]ethyl]-N-2-pyridinylcyclohexanecarboxamide maleate]?
**A.** Startle magnitude (mean±SEM) ([1]; WAY-100635 1.0 mg/kg SC pretreatment, vehicle treatment, experiment 3, n=10): 271.30±51.26; Startle magnitude (mean±SEM) ([1]; WAY-100635 1.0 mg/kg pretreatment, pargyline 10 + 5-MeO-DMT 1.0 mg/kg, experiment 3, n=10): 172.03±47.00; Effect of pretreatment on reduction of PPI produced by 10 mg/kg pargyline and 1 mg/kg 5-MeO-DMT ([3]; WAY-100,635 1 mg/kg pretreatment, p<0.01, Tukey's test): significantly antagonized

**Q.** Which “Startle magnitude (mean±SEM)” value ([1]; MDL 11,939 0.3 mg/kg pretreatment, pargyline 10 + 5-MeO-DMT 1.0 mg/kg, experiment 3, n=10) does the source give for `OC(c1ccccc1)C1CCN(CCc2ccccc2)CC1` (stereo not drawn) [MDL 11,939, α-Phenyl-1-(2-phenylethyl)-4-piperidinemethanol] here?
**A.** 419.79±48.30

**Q.** What about the “Effect of pretreatment on ability of pargyline and 5-MeO-DMT to reduce PPI” value ([3]; MDL 11,939 0.3 mg/kg pretreatment, p<0.01, Tukey's test) of the same molecule?
**A.** significantly attenuated

**Q.** Which “Startle magnitude (mean±SEM)” value ([1]; pargyline 10 mg/kg SC pretreatment, vehicle treatment, experiment 1, n=10) does the source give for `C#CCN(C)Cc1ccccc1` [Pargyline, pargyline HCl] here?
**A.** 167.66±22.30

**Q.** What about the “Effect on PPI” value ([3]; pargyline 10 mg/kg alone compared with vehicle pretreatment) of the same molecule?
**A.** did not significantly reduce PPI

Reference: paper PMC5403252 (Pharmacology, biochemistry, and behavior, 2016)
